Experimental data published in article PMC3929365, “Benzimidazoisoquinolines: A New Class of Rapidly Metabolized Aryl Hydrocarbon Receptor (AhR) Ligands that Induce AhR-Dependent Tregs and Prevent Murine Graft-Versus-Host Disease” (PLoS ONE, 2014).

Columns and labels:
[1] = Pharmacokinetics: serum concentration after single i.p. injection; type: in vivo, C57Bl/6 mice; details: 10 mg/kg i.p., mouse
Protocol: C57Bl/6 mice were injected i.p. with 10 mg/kg 10-Cl-BBQ. At defined time points, blood was collected by cardiac puncture. Serum was harvested and protein was precipitated by adding a 4-fold volume of ice-cold acetonitrile. The supernatant was collected and analyzed on a QTRAP 4000 LC/MS/MS instrument using an Agilent C8 UPLC column. The serum concentration of 10-Cl-BBQ was determined using a standard curve prepared using dilutions of 10,000; 5,000; 1,000; 500; 100; 50 and 10 pg/ml of 10-Cl-BBQ. The mean values (n = 2–3 mice per time point) are shown with SEM. Pharmacokinetic parameters were calculated using PKsolver software.
Figure 2 Pharmacokinetics of 10-Cl-BBQ. C57BL/6 mice were given 10 mg/kg 10-Cl-BBQ by i.p. injection. A) Blood was collected at the indicated times by cardiac puncture. The serum was processed to remove protein and the samples were analyzed by QTRAP 4000 LC/MS/MS. The serum concentration of 10-Cl-BBQ was determined from a standard curve based on known concentrations of 10-Cl-BBQ. B) Liver tissue was harvested and processed for mRNA analysis. CYP1A1 gene expression was determined relative to the β-actin gene, and the fold-induction was determined by the ΔΔCt method using the vehicle-treated samples as a control. The mean values are shown with SEM for 2–3 mice per time point.

AhR [2] = assay: Subtilisin proteolysis pattern of AhR in Hepa1c1c7 whole cell lysate; type: biochemical, mouse; details: 100 nM, 1 h, 1 µg/ml subtilisin
Protocol: (§1) Figure 1 10-Cl-BBQ is a potent AhR ligand. A) Structure of 10-Cl-BBQ. […] C) Hepa-1 cells expressing endogenous AhR were transfected with an AhR-regulated luciferase reporter gene (xenobiotic responsive element (XRE)-MMTVpromoter-Luc) and the reporter gene activity was measured after 12 h of treatment with 1 nM TCDD or the indicated concentrations of 10-Cl-BBQ. D) Alteration in proteolytic pattern of AhR by 10-Cl-BBQ. Whole cell lysate (45 µg of protein) from mouse hepatoma Hepa1c1c7 cells was incubated with 100 nM 10-Cl-BBQ or 0.1% DMSO for 1 h at RT and proteolyzed by 1 µg/ml subtilisin for 1, 2, 4, and 8 min at RT. Proteolytic cleavage products of AhR were analyzed by immunoblot. E) Electrophoretic mobility shift assay showing the ligand-stimulated binding of AhR to XRE. Whole cell lysate (18 µg of protein) from mouse hepatoma Hepa1c1c7 cells was incubated with 10 nM 10-Cl-BBQ or 0.1% DMSO for 2 h at room temperature and ^32P-labeled oligonucleotide containing XRE for 20 min at room temperature. The samples were electrophoresed on a native polyacrylamide gel and the signal was visualized by Phosphor Imager. Unlabeled competitor XRE or antibody (Ab) against AhR or Arnt was co-incubated with ^32P-labeled oligonucleotide.

AhR [3] = assay: Electrophoretic mobility shift assay, binding of AhR to XRE; type: biochemical, mouse; details: 10 nM, 2 h, Hepa1c1c7 whole cell lysate
Protocol: as §1

AhR [4] = assay: Cytosol to nuclear translocation of AhR in Hepa-1 cells; type: cell-based, mouse; details: 10 nM, 1 h
AhR [5] = system: AhR
Protocol: The AhR reporter gene assay was performed as previously described (20–22).
B) Hepa1 cells expressing endogenous AhR were transfected with a XRE-luciferase reporter gene. […] The mean luciferase activity is shown with SEM. C) Dose response curves for the competitive inhibition of [^3H] 3-MC binding to AhR.
3-methylcholanthrene (3-MC) to AhR (Fig. 5C).

activated T cells = assay: T cell proliferation in vitro (CFSE dilution, anti-CD3/anti-CD28); type: cell-based, C57Bl/6 mice; details: 100 nM, 72 h, anti-CD3 and anti-CD28
Protocol: (§2) A. Splenocytes from C57Bl/6 mice were labeled with CFSE and activated in vitro with anti-CD3 and anti-CD28 in the presence of 100 nM 10-Cl-BBQ or DMSO for 72 h. B. C57Bl/6 donor T cells were labeled with CFSE and injected into B6D2F1 host mice to initiate the GVH response. Host mice (n = 5 per group) were treated with vehicle or 10-Cl-BBQ i.p. (10 mg/kg/d) for two days. Donor cells were identified by gating on CD4^+CFSE^+ cells. […] (TIF) Click here for additional data file.

AhR target genes = assay: Expression of known AhR target genes in Hepa1 cells (RT-qPCR); type: cell-based, mouse; details: 10 nM, eight hours
Protocol: Supplementary file pone.0088726.s001.tif: Figure S1 10-Cl-BBQ induces the expression of known AhR target genes. Hepa1 cells were treated with 10-Cl-BBQ (10 nM), TCDD (10 nM), or vehicle (DMSO) for eight hours. RNA was extracted and RT-qPCR was performed for a select set of known AhR target genes. AHRR: aryl hydrocarbon receptor repressor, ALDH3A1: aldehyde dehydrogenase family 3; subfamily A1, CYP1b1: cytochrome P450 1b1; Gstm3: glutathione S-transferase, mu 3; GST-Ya: glutathione S transferase, alpha 1; NQO1: NAD(P)H dehydrogenase quinone 1; UGT2b34: UDP glucuronosyltransferase 2 family, polypeptide B34. (TIF) Click here for additional data file.

CD4+ T cells = assay: Donor CD4+ T cell proliferation in vivo (CFSE dilution) during the GVH response; set-up: species or system B6D2F1 host mice; details: 10 mg/kg/d i.p. for two days
Protocol: as §2

## O=c1c2cccc3cccc(c32)c2nc3ccc(Cl)cc3n12 [10-Cl-BBQ, 10-chloro-7H-benzimidazo[2,1-a]benzo[de]isoquinolin-7-one]
[1]
  absorption rate constant (ka): 1.2 h⁻¹
  time required to reach Cmax (Tmax): 1.64 h
  total clearance/bioavailability (CL/F): 32.5 mL/min
[1]; C57Bl/6, serum, ip, one compartment model
  half-life: ~2 h
[1]; C57Bl/6, serum, ip, read-out: area under the concentration-time curve (AUC0-∞)
  AUC(0-inf): 102 ng·h/mL
[1]; C57Bl/6, serum, ip, read-out: maximum concentration reached in serum (Cmax)
  Cmax: 21.5 ng/mL
[1]; C57Bl/6, serum, ip, read-out: volume of distribution/bioavailability (V/F)
  Vd/F: 5.66 L
AhR [2]
  proteolysis of AhR: delayed its proteolysis
AhR [3]
  DNA binding of AhR (XRE): specifically induced DNA binding of AhR
AhR [4]
  cytosol to nuclear translocation of AhR: promoted cytosol to nuclear translocation of AhR
AhR [5]
  IC50: 2.6 nM
Activated T cells
  proliferation of activated T cells in vitro: did not inhibit proliferation
AhR target genes
  induction of genes associated with AhR activation in hepatocytes: induced a battery of genes
CD4+ T cells
  proliferation of activated T cells in vivo: did not inhibit proliferation
